Like-named read-outs stand apart in the source and are kept apart here.
Key:
CYP2B6 = CYP2B6 (Homo sapiens, UniProt P20813); assay: Eurofins CYP450 inhibition, 3-Cyano-7-ethoxycoumarin substrate; format: in vitro ADME; settings: recombinant CYP2B6, probe 3-cyano-7-ethoxycoumarin, 10 μM 2AP
[1] = target: Nicotinic Acetylcholine α3β4 (Homo sapiens, UniProt P30926+P32297); assay: Eurofins radioligand receptor binding inhibition; settings: 10 μM 2AP
Dopamine D2S = Dopamine D2S (Homo sapiens, UniProt P14416); assay: Eurofins radioligand receptor binding inhibition; design: dose or concentration left out as unconfirmed
Chain of Dopamine D2S (P14416 1-414 isoform P14416-2): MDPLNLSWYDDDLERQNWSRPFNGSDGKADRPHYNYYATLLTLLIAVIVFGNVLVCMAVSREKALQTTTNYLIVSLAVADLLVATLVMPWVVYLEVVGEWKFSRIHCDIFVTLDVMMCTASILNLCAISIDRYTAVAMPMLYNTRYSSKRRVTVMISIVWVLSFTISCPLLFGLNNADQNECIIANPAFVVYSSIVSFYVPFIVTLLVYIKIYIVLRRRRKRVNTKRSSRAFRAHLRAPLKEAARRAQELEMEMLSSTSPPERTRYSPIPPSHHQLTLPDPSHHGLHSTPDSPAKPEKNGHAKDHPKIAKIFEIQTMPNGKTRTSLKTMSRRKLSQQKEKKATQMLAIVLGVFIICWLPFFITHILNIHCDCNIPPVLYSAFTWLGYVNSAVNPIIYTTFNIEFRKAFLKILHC

Potassium Channel [KATP] = assay: Eurofins radioligand receptor binding inhibition; settings: 10 μM 2AP
Dopamine D1 = Dopamine D1 (Homo sapiens, UniProt P21728); assay: Eurofins radioligand receptor binding inhibition; design: dose or concentration left out as unconfirmed
Chain of Dopamine D1 (P21728 whole entry): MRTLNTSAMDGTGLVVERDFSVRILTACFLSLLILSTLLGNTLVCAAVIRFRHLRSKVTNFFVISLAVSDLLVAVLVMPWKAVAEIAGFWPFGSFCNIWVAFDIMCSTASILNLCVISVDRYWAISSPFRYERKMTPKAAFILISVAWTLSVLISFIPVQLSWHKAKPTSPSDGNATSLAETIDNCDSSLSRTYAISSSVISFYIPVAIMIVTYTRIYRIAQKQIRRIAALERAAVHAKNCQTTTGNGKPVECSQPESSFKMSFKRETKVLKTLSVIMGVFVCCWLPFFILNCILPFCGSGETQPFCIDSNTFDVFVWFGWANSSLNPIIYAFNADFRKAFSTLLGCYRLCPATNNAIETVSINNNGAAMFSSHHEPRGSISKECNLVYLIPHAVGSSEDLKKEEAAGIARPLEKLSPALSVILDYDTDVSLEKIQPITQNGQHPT

CYP3A4 = CYP3A4 (Homo sapiens, UniProt P08684); assay: Eurofins CYP450 inhibition, 7-Benzyloxy-4-(trifluoromethyl)-coumarin substrate; format: in vitro ADME; settings: recombinant CYP3A4, probe 7-benzyloxy-4-(trifluoromethyl)-coumarin, 10 μM 2AP
Chain of CYP3A4 (P08684 whole entry): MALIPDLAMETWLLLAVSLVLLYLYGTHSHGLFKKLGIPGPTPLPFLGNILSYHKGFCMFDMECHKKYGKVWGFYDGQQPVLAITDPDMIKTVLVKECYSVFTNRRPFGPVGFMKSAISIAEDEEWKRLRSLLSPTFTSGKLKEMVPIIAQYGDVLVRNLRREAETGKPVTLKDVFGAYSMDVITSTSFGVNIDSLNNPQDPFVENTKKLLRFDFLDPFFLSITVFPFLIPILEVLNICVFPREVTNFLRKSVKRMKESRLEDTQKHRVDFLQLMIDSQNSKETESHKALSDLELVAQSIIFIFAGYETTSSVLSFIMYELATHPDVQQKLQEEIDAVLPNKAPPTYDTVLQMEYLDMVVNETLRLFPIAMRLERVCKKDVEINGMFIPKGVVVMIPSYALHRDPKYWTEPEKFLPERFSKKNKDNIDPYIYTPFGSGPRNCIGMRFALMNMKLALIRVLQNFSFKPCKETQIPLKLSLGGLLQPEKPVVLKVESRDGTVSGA

Adrenergic β1 = Adrenergic β1 (Homo sapiens, UniProt P08588); assay: Eurofins radioligand receptor binding inhibition; settings: 10 μM 2AP
Chain of Adrenergic β1 (P08588 whole entry): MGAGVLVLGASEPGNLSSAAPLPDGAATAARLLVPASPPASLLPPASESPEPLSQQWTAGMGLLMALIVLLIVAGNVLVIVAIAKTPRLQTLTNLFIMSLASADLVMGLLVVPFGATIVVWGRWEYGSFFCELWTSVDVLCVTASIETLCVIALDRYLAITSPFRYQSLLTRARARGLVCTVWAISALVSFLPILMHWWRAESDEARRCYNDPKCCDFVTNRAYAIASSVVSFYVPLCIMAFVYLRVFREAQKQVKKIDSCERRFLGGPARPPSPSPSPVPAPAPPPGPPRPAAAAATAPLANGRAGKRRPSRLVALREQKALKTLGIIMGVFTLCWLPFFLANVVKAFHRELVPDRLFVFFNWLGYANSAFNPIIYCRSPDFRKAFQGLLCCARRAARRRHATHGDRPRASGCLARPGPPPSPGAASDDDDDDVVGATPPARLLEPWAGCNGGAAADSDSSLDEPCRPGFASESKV

[2] = test system: aromatase/CYP19A1, CYP2C8, CYP1A2, CYP2B6, CYP2C19, CYP2C9, CYP2D6 and CYP3A4 (mean over 8 enzymes); assay: Eurofins CYP450 panel, mean over 8 enzymes; format: in vitro ADME; settings: human, recombinant CYP450 enzymes; 10 μM 2AP; mean over 8 CYP450 enzymes; read-out: percent inhibition of CYP450 enzymes, mean ± SD, n = 8
Adrenergic β2 = Adrenergic β2 (Homo sapiens, UniProt P07550); assay: Eurofins radioligand receptor binding inhibition; design: dose or concentration left out as unconfirmed
Chain of Adrenergic β2 (P07550 whole entry): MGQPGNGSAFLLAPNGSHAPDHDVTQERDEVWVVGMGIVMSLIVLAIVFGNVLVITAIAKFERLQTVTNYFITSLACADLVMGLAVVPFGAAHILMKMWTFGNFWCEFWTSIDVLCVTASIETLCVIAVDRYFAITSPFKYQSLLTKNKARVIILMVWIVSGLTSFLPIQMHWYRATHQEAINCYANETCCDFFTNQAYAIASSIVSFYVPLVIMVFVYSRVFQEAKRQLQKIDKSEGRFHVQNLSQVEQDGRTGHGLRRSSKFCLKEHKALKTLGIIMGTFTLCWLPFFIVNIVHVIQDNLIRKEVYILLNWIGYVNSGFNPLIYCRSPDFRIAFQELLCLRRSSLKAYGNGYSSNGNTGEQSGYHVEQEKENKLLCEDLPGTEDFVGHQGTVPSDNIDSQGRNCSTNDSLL

Sigma σ1 = Sigma σ1 (Homo sapiens, UniProt Q99720); assay: Eurofins radioligand receptor binding inhibition; settings: 10 μM 2AP
Chain of Sigma σ1 (Q99720 whole entry): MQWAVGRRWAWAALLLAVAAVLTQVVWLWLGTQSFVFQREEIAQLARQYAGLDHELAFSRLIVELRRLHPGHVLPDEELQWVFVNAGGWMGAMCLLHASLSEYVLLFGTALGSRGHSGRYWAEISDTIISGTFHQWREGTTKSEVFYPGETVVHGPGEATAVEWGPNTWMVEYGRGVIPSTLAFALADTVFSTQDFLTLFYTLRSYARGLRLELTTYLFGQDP

CYP1A2 = CYP1A2 (Homo sapiens, UniProt P05177); assay: Eurofins CYP450 inhibition, 3-Cyano-7-ethoxycoumarin substrate; format: in vitro ADME; settings: recombinant CYP1A2, probe 3-cyano-7-ethoxycoumarin, 10 μM 2AP
Chain of CYP1A2 (P05177 whole entry): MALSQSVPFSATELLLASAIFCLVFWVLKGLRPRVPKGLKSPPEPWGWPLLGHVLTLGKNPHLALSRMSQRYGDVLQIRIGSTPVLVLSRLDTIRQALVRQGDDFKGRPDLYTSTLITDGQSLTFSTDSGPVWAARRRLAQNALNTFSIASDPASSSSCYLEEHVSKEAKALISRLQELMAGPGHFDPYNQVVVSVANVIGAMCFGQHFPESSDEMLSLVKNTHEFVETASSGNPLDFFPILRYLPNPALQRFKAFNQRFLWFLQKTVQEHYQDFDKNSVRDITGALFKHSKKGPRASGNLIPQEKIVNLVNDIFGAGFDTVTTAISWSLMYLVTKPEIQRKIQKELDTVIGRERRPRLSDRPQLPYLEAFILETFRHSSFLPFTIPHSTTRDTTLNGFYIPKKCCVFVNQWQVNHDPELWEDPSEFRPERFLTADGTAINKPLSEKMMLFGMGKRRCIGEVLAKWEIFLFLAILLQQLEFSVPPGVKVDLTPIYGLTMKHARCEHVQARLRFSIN
Procedure: CYP450 enzymes and a panel of receptors were assessed for inhibition by 10 μM 2AP using HitProfilingScreen + CYP450 LeadHunter Panel at Eurofins (Eurofins Panlabs Discovery Services, New Taipei City, Taiwan). Briefly, human recombinant CYP450 enzymes were preincubated at 37°C for 15 minutes with 10 μM 2AP. Enzyme activity was assessed by cleavage of the CYP450 fluorogenic substrates dibenzyl fluorescein (aromatase / CYP19A1, CYP2C8), 3-Cyano-7-ethoxycoumarin (CYP1A2, CYP2B6, CYP2C19, CYP2C9, and CYP2D6), or 7-Benzyloxy-4-(trifluoromethyl)-coumarin (CYP3A4), as described previously. Inhibition of receptor binding was assessed using a panel of receptors expressed on cell lines or using tissue extracts and preincubated at 25°C for 30–120 minutes with 10 μM 2AP. Cells or tissue extracts were then incubated with radiolabeled specific ligands a described (https://www.eurofinsdiscovery.com/catalog/hitprofilingscreen-cyp450-leadhunter-panel-tw/PP115) and inhibition of binding was reported (S2 Table).

Histamine H1 = Histamine H1 (Homo sapiens, UniProt P35367); assay: Eurofins radioligand receptor binding inhibition; settings: 10 μM 2AP
Chain of Histamine H1 (P35367 whole entry): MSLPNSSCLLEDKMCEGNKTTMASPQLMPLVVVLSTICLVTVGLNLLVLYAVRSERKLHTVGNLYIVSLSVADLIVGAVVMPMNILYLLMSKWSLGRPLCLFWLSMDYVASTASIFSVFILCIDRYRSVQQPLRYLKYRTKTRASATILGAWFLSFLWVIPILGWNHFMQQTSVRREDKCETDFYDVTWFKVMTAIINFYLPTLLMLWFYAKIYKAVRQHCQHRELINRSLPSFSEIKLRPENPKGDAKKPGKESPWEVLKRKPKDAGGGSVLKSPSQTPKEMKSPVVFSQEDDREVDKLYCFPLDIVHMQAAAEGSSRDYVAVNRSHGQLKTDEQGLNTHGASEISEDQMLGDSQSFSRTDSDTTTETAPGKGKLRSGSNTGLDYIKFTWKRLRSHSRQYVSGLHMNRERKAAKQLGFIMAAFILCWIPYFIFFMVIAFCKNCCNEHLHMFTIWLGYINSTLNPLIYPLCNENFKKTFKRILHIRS

[3] = test system: CCl4-induced liver inflammation and fibrosis; settings: for body weight, CCl4-induced weight loss: 1 mg/kg 2AP i.p. daily from day 21
[4] = CCl4+2AP vs CCl4, male and female mice
[5] = treatments vs control (oil) mice

Chain of Nicotinic Acetylcholine α3β4 (P32297 32-505): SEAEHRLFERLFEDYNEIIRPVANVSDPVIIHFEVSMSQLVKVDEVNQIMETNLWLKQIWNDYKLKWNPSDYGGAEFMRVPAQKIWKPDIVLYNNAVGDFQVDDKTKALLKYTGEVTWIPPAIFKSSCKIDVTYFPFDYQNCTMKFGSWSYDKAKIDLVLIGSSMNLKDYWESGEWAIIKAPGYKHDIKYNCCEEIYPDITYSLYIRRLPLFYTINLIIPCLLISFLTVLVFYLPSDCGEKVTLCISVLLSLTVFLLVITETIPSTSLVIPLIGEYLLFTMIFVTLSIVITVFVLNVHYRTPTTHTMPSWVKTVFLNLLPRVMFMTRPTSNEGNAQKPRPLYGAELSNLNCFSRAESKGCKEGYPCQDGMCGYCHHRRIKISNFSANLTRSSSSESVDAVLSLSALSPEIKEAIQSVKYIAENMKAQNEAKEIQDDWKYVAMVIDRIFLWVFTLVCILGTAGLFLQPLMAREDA
Chain of Nicotinic Acetylcholine α3β4 (P30926 22-498): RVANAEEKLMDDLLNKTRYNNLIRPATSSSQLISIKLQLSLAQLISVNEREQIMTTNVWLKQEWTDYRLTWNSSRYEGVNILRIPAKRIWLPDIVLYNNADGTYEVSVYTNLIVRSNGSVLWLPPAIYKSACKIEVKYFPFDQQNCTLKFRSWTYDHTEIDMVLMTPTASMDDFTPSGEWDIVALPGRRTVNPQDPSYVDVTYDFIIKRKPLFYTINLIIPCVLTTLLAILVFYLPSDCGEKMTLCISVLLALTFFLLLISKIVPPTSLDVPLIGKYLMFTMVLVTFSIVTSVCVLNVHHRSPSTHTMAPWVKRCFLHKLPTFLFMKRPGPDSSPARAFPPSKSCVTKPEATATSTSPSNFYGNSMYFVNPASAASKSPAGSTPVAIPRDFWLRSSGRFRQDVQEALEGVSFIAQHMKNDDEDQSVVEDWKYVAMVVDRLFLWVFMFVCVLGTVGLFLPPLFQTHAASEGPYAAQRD
Chain of CYP2B6 (P20813 whole entry): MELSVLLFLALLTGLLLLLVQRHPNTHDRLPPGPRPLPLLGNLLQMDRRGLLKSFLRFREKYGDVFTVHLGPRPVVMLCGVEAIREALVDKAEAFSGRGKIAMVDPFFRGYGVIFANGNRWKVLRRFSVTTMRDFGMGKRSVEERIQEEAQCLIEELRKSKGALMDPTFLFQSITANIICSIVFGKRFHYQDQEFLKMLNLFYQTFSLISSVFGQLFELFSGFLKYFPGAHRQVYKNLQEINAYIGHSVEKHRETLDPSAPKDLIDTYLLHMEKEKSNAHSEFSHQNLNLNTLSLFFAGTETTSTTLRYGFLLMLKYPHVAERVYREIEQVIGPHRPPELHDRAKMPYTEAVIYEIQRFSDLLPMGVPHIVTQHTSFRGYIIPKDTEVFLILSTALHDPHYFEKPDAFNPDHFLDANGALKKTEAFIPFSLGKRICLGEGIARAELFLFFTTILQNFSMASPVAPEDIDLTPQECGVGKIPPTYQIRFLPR

SMILES: CC(=O)c1ccccn1 [2AP, 2-acetyl pyridine]
- inhibition at 10 µM (CYP2B6): 0%
- inhibition at 10 µM [1]: -2%
- inhibition (Dopamine D2S): -4%
- % Inhibition (Potassium Channel [KATP]): -11%
- inhibition (Dopamine D1): -5%
- inhibition at 10 µM (CYP3A4): -2%
- inhibition at 10 µM (Adrenergic β1): 3%
- inhibition at 10 µM [2]: 1.5 ± 1.2%
- inhibition (Adrenergic β2): 5%
- inhibition at 10 µM (Sigma σ1): 13%
- inhibition at 10 µM (CYP1A2): 3%
- inhibition at 10 µM (Histamine H1): 8%
- toxic effects of daily injections ([3]; 1 mg/kg 2AP i.p. daily, days 21-42): did not appear to have any obvious toxic effects
- body weight, CCl4-induced weight loss ([3]; CCl4+2AP vs CCl4, female mice): response of female mice to 2AP treatment
- body weight, CCl4-induced weight loss ([3]; CCl4+2AP vs CCl4, male and female combined, days 39 and 40): less weight loss
- body weight, CCl4-induced weight loss ([3]; CCl4+2AP vs CCl4, male mice): not apparent in male mice
- number of S100A8/MRP8 positive cells (neutrophils) in liver ([3]; CCl4+2AP vs CCl4, female mice): reduction in the number of S100A8/MRP8 positive cells
- liver NEU3 staining [3, 4]: attenuated the CCl4-induced NEU3 staining
- liver desialylation, PNA lectin staining [3, 4]: reduced PNA staining
- liver fibrosis, picrosirius red staining [3, 4]: decreased picrosirius red staining
- liver inflammation, vessels with accumulation of immune cells (H&E) [3, 4]: attenuated the CCl4 induced inflammation
- number of Mac2 positive cells around liver vessels [3, 4]: decreased the number of Mac2 positive cells in the vessel areas
- number of Mac2 positive cells in liver [3, 4]: decreased the number of Mac2 positive cells
- steatosis, oil red O staining of liver [3, 4]: no significant differences in oil red O staining
- liver hydroxyproline levels ([3]; CCl4+2AP vs CCl4, male mice): reduced hydroxyproline levels
- kidney, spleen, heart, or brown fat weights at day 42 ([3]; mouse, in vivo): no significant effect
- liver NEU3 staining ([3]; mouse, in vivo): no significant differences in NEU3 staining
- liver desialylation, PNA lectin staining ([3]; mouse, in vivo): did not significantly change PNA staining
- liver hydroxyproline levels ([3]; mouse, in vivo): no significant differences in hydroxyproline levels
- liver weight at day 42 ([3]; mouse, in vivo): higher liver weights
- lung weight at day 42 ([3]; mouse, in vivo): increased lung weights
- number of Mac2 positive cells around liver vessels ([3]; mouse, in vivo): no significant differences in the number of Mac2 positive cells in vessel areas
- number of Mac2 positive cells in liver ([3]; mouse, in vivo): no significant differences in the number of Mac2 positive cells
- number of S100A8 positive cells in liver ([3]; mouse, in vivo): no significant differences in the number of S100A8 positive cells
- overt effects on mice (body weight over 42 days) ([3]; mouse, in vivo): no overt effects on the mice
- steatosis, oil red O staining of liver ([3]; mouse, in vivo): no significant change in the oil red O staining
- white fat weight at day 42 ([3]; mouse, in vivo): reduced white fat
- number of CD3 T cells in liver [3, 5]: no significant treatment-induced difference
- number of CLEC4F positive Kupffer cells in liver [3, 5]: no significant treatment-induced difference
- number of Mac2 positive cells in parenchymal areas of the liver ([3]; treatments vs control mice): no significant treatment-induced difference

— article PMC11581222, “Inhibition of CCl4-induced liver inflammation and fibrosis by a NEU3 inhibitor” (PLOS ONE, 2024)
